Experimental findings from BindingDB's records for doi:10.1021/acs.jmedchem.6b00541 (Vertex Pharmaceuticals, 2016) are described below.

Molecular target in the first experiment: not listed separately
Description: Allosteric inhibition of HCV genotype 1b NS5A infected in human l389lucubi- neo/NS3-375.1-containing Huh7ET cells assessed as RNA replication/translation after 4 days by luciferase reporter gene assay.
In the case of `CC(C)(C)C#Cc1cc(N(CC(=O)N2CCCC2)C(=O)[C@H]2CC[C@H](C)CC2)c(C(=O)O)s1`, the half-maximal effective concentration (EC50) amounted to 21 nM.

For the compound `C[C@@H](C(=O)N(C)C)N(c1cc(C#CC(C)(C)C)sc1C(=O)O)C(=O)[C@H]1CC[C@H](C)CC1`, the EC50 was 5 nM.

As for `CC[C@@H](C(=O)N(C)C)N(c1cc(C#CC(C)(C)C)sc1C(=O)O)C(=O)[C@H]1CC[C@H](C)CC1`, the EC50 came to 16 nM.

On to `COC1CCN(C(=O)CN(c2cc(C#CC(C)(C)C)sc2C(=O)O)C(=O)[C@H]2CC[C@H](C)CC2)CC1`, for which the EC50 turned out to be 17 nM.

With `CC(C)(C)C#Cc1cc(N(CC(=O)N2CCC(O)CC2)C(=O)[C@H]2CC[C@H](C)CC2)c(C(=O)O)s1`, the EC50 was determined as 64 nM.

Regarding `CCN(CC)C(=O)CN(c1cc(C#CC(C)(C)C)sc1C(=O)O)C(=O)[C@H]1CC[C@H](C)CC1`, the concentration for a half-maximal effect (EC50) stood at 23 nM.

As to `CN(C)C(=O)CN(c1cc(C#CC(C)(C)C)sc1C(=O)O)C(=O)[C@H]1CC[C@H](C)CC1`, the EC50 was 12 nM.

Turning to `COC[C@@H](C(=O)N(C)C)N(c1cc(C#CC(C)(C)C)sc1C(=O)O)C(=O)[C@H]1CC[C@H](C)CC1`, the EC50 was determined as 7 nM.

As for `CCC[C@@H](C(=O)N(C)C)N(c1cc(C#CC(C)(C)C)sc1C(=O)O)C(=O)[C@H]1CC[C@H](C)CC1`, the EC50 is 14 nM.

Take `C[C@H](C(=O)N(C)C)N(c1cc(C#CC(C)(C)C)sc1C(=O)O)C(=O)[C@H]1CC[C@H](C)CC1`: the EC50 stood at 109 nM.

Regarding `CC(C)(C)C#Cc1cc(N(CC(=O)N2CCCCC2)C(=O)[C@H]2CC[C@H](C)CC2)c(C(=O)O)s1`, the half-maximal effective concentration (EC50) is 67 nM.

As for `CN(C)C(=O)[C@H](CO)N(c1cc(C#CC(C)(C)C)sc1C(=O)O)C(=O)[C@H]1CC[C@H](C)CC1`, the EC50 was found to be 60 nM.

As to `CNC(=O)CN(c1cc(C#CC(C)(C)C)sc1C(=O)O)C(=O)[C@H]1CC[C@H](C)CC1`, the EC50 amounted to 190 nM.

As to `CN1CCN(C(=O)CN(c2cc(C#CC(C)(C)C)sc2C(=O)O)C(=O)[C@H]2CC[C@H](C)CC2)CC1`, the EC50 stood at 6 nM.

On to `CC(C)(C)C#Cc1cc(N(CC(=O)N2CC(O)C2)C(=O)[C@H]2CC[C@H](C)CC2)c(C(=O)O)s1`, for which the EC50 amounted to 66 nM.

As to `CC(C)NC(=O)CN(c1cc(C#CC(C)(C)C)sc1C(=O)O)C(=O)[C@H]1CC[C@H](C)CC1`, the EC50 came to 160 nM.

Consider `CC(C)[C@@H](C(=O)N(C)C)N(c1cc(C#CC(C)(C)C)sc1C(=O)O)C(=O)[C@H]1CC[C@H](C)CC1`, for which the concentration for a half-maximal effect (EC50) is 51 nM.

For the compound `CN(C)CCN(C)C(=O)CN(c1cc(C#CC(C)(C)C)sc1C(=O)O)C(=O)[C@H]1CC[C@H](C)CC1`, the EC50 was found to be 9 nM.

For the compound `CC(C)(C)C#Cc1cc(N(C(=O)[C@H]2CC[C@H](C)CC2)[C@H]2CC[C@H](O)CC2)c(C(=O)O)s1` [Lomibuvir], the 50% effective concentration (EC50) was found to be 7 nM.

Molecular target in the next experiment: not listed separately
The experiment in a line: Allosteric inhibition of HCV genotype 1a NS5A infected in human W11.8 cells assessed as reduction in viral RNA replication after 4 days by ELISA.
`CC(C)(C)C#Cc1cc(N(CC(=O)N2CCOCC2)C(=O)[C@H]2CC[C@H](C)CC2)c(C(=O)O)s1`: the EC50 stood at 37 nM.

For the compound `CC(C)(C)C#Cc1cc(N(CC(=O)N2CCCC2)C(=O)[C@H]2CC[C@H](C)CC2)c(C(=O)O)s1`, the EC50 was 32 nM.

Consider `C[C@@H](C(=O)N(C)C)N(c1cc(C#CC(C)(C)C)sc1C(=O)O)C(=O)[C@H]1CC[C@H](C)CC1`, for which the EC50 was 7 nM.

On to `CC[C@@H](C(=O)N(C)C)N(c1cc(C#CC(C)(C)C)sc1C(=O)O)C(=O)[C@H]1CC[C@H](C)CC1`, for which the EC50 was found to be 24 nM.

Turning to `CCN(CC)C(=O)CN(c1cc(C#CC(C)(C)C)sc1C(=O)O)C(=O)[C@H]1CC[C@H](C)CC1`, the EC50 was 51 nM.

As to `CN(C)C(=O)CN(c1cc(C#CC(C)(C)C)sc1C(=O)O)C(=O)[C@H]1CC[C@H](C)CC1`, the EC50 turned out to be 35 nM.

On to `COC[C@@H](C(=O)N(C)C)N(c1cc(C#CC(C)(C)C)sc1C(=O)O)C(=O)[C@H]1CC[C@H](C)CC1`, for which the EC50 came to 11 nM.

For the compound `CC(C)(C)C#Cc1cc(N(C(=O)[C@H]2CC[C@H](C)CC2)[C@H]2CC[C@H](O)CC2)c(C(=O)O)s1` [Lomibuvir], the EC50 amounted to 53 nM.

Molecular target in a further experiment: not listed separately
The experiment in a line: Allosteric inhibition of HCV genotype 1b NS5A infected in human l389lucubi- neo/NS3-375.1-containing Huh7ET cells assessed as RNA replication/translation after 4 days in presence of 40% human serum by luciferase reporter gene assay.
For `CC(C)(C)C#Cc1cc(N(CC(=O)N2CCOCC2)C(=O)[C@H]2CC[C@H](C)CC2)c(C(=O)O)s1`, the EC50 stood at 340 nM.

The next experiment has as its target T1, Nonstructural protein 5A (UniProt Q5L478).
T1 sequence (Q5L478 whole entry): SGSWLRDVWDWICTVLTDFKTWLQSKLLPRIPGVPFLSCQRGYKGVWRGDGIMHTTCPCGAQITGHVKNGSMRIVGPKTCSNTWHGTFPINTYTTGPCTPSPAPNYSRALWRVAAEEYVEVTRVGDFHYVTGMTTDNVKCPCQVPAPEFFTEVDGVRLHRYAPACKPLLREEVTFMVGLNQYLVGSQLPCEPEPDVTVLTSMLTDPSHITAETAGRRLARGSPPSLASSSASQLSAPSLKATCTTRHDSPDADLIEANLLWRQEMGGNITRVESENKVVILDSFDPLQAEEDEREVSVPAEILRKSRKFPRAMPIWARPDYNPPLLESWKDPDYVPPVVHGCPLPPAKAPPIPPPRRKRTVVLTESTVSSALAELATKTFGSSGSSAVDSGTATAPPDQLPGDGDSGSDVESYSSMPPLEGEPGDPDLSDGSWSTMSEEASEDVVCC
Description: Allosteric inhibition of HCV genotype 1b NS5A infected in human l389lucubi- neo/NS3-375.1-containing Huh7ET cells assessed as RNA replication/translation after 4 days by luciferase reporter gene assay.
In the case of `CC(C)(C)C#Cc1cc(N(CC(=O)N2CCOCC2)C(=O)[C@H]2CC[C@H](C)CC2)c(C(=O)O)s1`, the EC50 was found to be 23 nM.
